From US20210069295A1, “GALECTINS CONTROL MTOR IN RESPONSE TO ENDOMEMBRANE DAMAGE AND PROVIDE A MECHANISM AND TARGET FOR THE TREATMENT OF AUTOPHAGY-RELATED DISEASES” (STC. UNM, priority 2017, published 2021)

Assays:
mTOR [1] = assay: mTOR localization relative to LAMP2-positive lysosomes (HC and confocal microscopy); type: cell-based; conditions: HeLa cells
Description: (§1) (A) Dose-response analysis of mTOR activity in HEK293T cells treated with glycyl-L-phenylalanine 2-naphththylamide (GPN) in full medium for 1 h. mTOR activity was monitored by inununoblotting analysis of S6K1 (T389) and ULK1 (S757) phosphorylation (phosphorylated S6K (T389) and ULK1 (S757) relative to total S6K and ULK1, respectively). (B) Analysis of mTOR activity (as in A) after GPN washout. HEK293T cells were treated with 100 μM GPN for 1 h followed by 1 h washout in full medium. Data, means±SEM (n=3), **p<0.01, ANOVA. (C) Analysis of mTOR activity (as in A) in HEK293T cells treated with increasing doses of silica in full medium for 1 h. (D) HEK293T cells were treated with lysosomal damaging agents (LLOMe, Leu-Leu-OMe) for 1 h in full medium and status of acidified organelles assessed by quantifying LysoTracker Red DND-99 puncta using automated high-content imaging and analysis (HC). None-treated cells were as control (Ctrl). White masks, algorithm defined cell boundaries (primary objects); yellow masks, computer-identified LysoTracker Red puncta (target objects). Data, means±SEM, n≥3 independent experiments (500 primary objects counted per well; ≥5 wells/sample per each experiment), **p<0.01, ANOVA. (E) Analysis of mTOR activity in primary human macrophages treated with GPN. Human peripheral blood monocyte derived macrophages were treated with 100 μM GPN in full medium or starved in EBSS for 1 h, and mTOR activity measured as in A. None-treated cells were as control (Ctrl). (F) Quantification by HC of overlaps between mTOR and LAMP2 (representative images shown in FIG. S1D) in HeLa cells treated with lysosomal damaging agents for 1 h in full medium. Data, means±SEM, n≥3 independent experiments (500 primary objects counted per well; ≥5 wells/sample per each experiment) **p<0.01, ANOVA. (G) Immunofluorescence confocal microscopy visualization of mTOR localization relative to LAMP2-positive lysosomes. […] (H) Analysis of TFEB nuclear translocation in HeLa cells treated with 100 μM GPN in full medium for 1 h, and the nuclear translocation of TFEB was measured by HC (Nuclei, Hoechst 33342, blue pseudocolor; TFEB red fluorescence, Alexa-568). […] White masks, computer algorithm-defined cell boundaries (primary objects); pink masks, computer-identified nuclear TFEB based on the average intensity of Alexa-568 fluorescence. Data, means±SEM, n≥3 independent experiments (500 primary objects counted per well; ≥5 wells/sample per each experiment), **p<0.01, ANOVA. (I) HeLa cells were treated as indicated in full medium for 1 h, and LC3 puncta were quantified by HC. […] Data, means±SEM, n≥3 independent experiments (500 primary objects counted per well; ≥5 wells/sample per each experiment), **p<0.01, ANOVA. […]

[2] = tested on: bone marrow-derived macrophages (BMMs); assay: LysoTracker Red DND-99 staining in bone marrow-derived macrophages (BMMs); type: cell-based, murine; conditions: GPN 400 μM or LLOMe, 1 h
mTOR [3] = assay: mTOR activity by immunoblotting of S6K1 (T389) and ULK1 (S757) phosphorylation in HEK293T cells; type: cell-based; conditions: HEK293T cells, full medium, 1 h
Description: as §1

TFEB = TFEB nuclear translocation by high-content microscopy in HeLa cells; type: cell-based; conditions: 1 h full medium
Description: (A) Dose-response analysis of mTOR activity in HEK293T cells treated with glycyl-L-phenylalanine 2-naphththylamide (GPN) in full medium for 1 h. mTOR activity was monitored by inununoblotting analysis of S6K1 (T389) and ULK1 (S757) phosphorylation (phosphorylated S6K (T389) and ULK1 (S757) relative to total S6K and ULK1, respectively). (B) Analysis of mTOR activity (as in A) after GPN washout. HEK293T cells were treated with 100 μM GPN for 1 h followed by 1 h washout in full medium. Data, means±SEM (n=3), **p<0.01, ANOVA. (C) Analysis of mTOR activity (as in A) in HEK293T cells treated with increasing doses of silica in full medium for 1 h. (D) HEK293T cells were treated with lysosomal damaging agents (LLOMe, Leu-Leu-OMe) for 1 h in full medium and status of acidified organelles assessed by quantifying LysoTracker Red DND-99 puncta using automated high-content imaging and analysis (HC). […] Data, means±SEM, n≥3 independent experiments (500 primary objects counted per well; ≥5 wells/sample per each experiment), **p<0.01, ANOVA. […] Human peripheral blood monocyte derived macrophages were treated with 100 μM GPN in full medium or starved in EBSS for 1 h, and mTOR activity measured as in A. None-treated cells were as control (Ctrl). […] Data, means±SEM, n≥3 independent experiments (500 primary objects counted per well; ≥5 wells/sample per each experiment) **p<0.01, ANOVA. […]

In the case of COC(=O)[C@H](CC(C)C)NC(=O)[C@@H](N)CC(C)C [LLOMe, Leu-Leu-OMe], the “mTOR localization after washout” value (mTOR [1]; 2 mM LLOMe 1 h followed by 1 h washout) is reported as “relocalization of mTOR to lysosomes”, the “mTOR localization (lysosomes vs cytosol, overlap with LAMP2)” value (mTOR [1]; 1 h full medium) is reported as “translocated from lysosomes to the cytosol” and the “LysoTracker Red DND-99 staining in BMMs (lysosomal damage)” value [2] is reported as “reduced LysoTracker Red DND-99 staining”. For the same molecule, the “mTOR activity (phosphorylation of its substrates S6K1 and ULK1)” value (mTOR [3]) was “caused inhibition of mTOR activity” and the TFEB nuclear translocation (TFEB) was “translocated to the nucleus from the cytoplasm”.
